The record followed here is ChEMBL document CHEMBL1255397, “Attenuation of cerebrospinal fluid inflammation by the nonbacteriolytic antibiotic daptomycin versus that by ceftriaxone in experimental pneumococcal meningitis” (Antimicrob Agents Chemother, 2010).

In series [1] the test system is Streptococcus pneumoniae. The series can be described thus: Antimicrobial activity against Streptococcus pneumoniae serotype 3 clinical isolate infected in Wistar rat assessed as cerebrospinal fluid bacterial titer at 50 mg/kg, sc administered 18 hrs post infection measured after 4 hrs. Type of series: functional. Conditions: route subcutaneous.
The test system of series [2] is Rattus norvegicus. The series can be described thus: Toxicity in Streptococcus pneumoniae serotype 3 clinical isolate infected in Wistar rat assessed as decrease in CSF CXCL1 concentration at 50 mg/kg, sc administered 18 hrs post infection measured after 2 to 6 hrs by microsphere-based multiplex assay. In kind it is organism-based. Further details: dose 50 mg/kg, route subcutaneous. Conditions: in vivo.

The subject of series [3] is Rattus norvegicus. The series can be described thus: Toxicity in against Streptococcus pneumoniae serotype 3 clinical isolate infected in Wistar rat assessed as increase in CSF IL-18 concentration at 100 mg/kg, sc administered 18 hrs post infection measured after 2 to 6 hrs by microsphere-based multiplex assay. In kind it is organism-based. Further details: dose 100 mg/kg, route subcutaneous. The note with it: in vivo.

Series [4] relates to Rattus norvegicus. As to the kind of experiment: Toxicity in Streptococcus pneumoniae serotype 3 clinical isolate infected in Wistar rat assessed as decrease in CSF TNF-alpha concentration at 50 mg/kg, sc administered 18 hrs post infection measured after 2 to 6 hrs by microsphere-based multiplex assay. Type of series: organism-based. On the set-up: dose 50 mg/kg, route subcutaneous. Conditions: in vivo.

The test system of series [5] is Rattus norvegicus. As to the kind of experiment: Decrease in severity of cortical damage in Streptococcus pneumoniae serotype 3 clinical isolate infected in Wistar rat at 50 mg/kg, sc administered 18 hrs post infection measured after 2 to 6 hrs. In kind it is functional. The note with it: route subcutaneous.
Series [6] concerns Rattus norvegicus. As to the kind of experiment: Toxicity in Streptococcus pneumoniae serotype 3 clinical isolate infected in Wistar rat assessed as decrease in CSF IL-6 concentration at 50 mg/kg, sc administered 18 hrs post infection measured after 2 to 6 hrs by microsphere-based multiplex assay. Conditions: in vivo. Type of series: organism-based. Further details: dose 50 mg/kg, route subcutaneous.

Series [7] has as its system Rattus norvegicus. The series can be described thus: Toxicity in Streptococcus pneumoniae serotype 3 clinical isolate infected in Wistar rat assessed as decrease in CSF MCP-1 concentration at 50 mg/kg, sc administered 18 hrs post infection measured after 2 to 6 hrs by microsphere-based multiplex assay. Type of series: organism-based. Conditions: in vivo. Further details: dose 50 mg/kg, route subcutaneous.

Series [8] deals with Rattus norvegicus. As to the kind of experiment: Toxicity in Streptococcus pneumoniae serotype 3 clinical isolate infected in Wistar rat assessed as decrease in CSF IL-10 concentration at 100 mg/kg, sc administered 18 hrs post infection measured after 2 to 6 hrs by microsphere-based multiplex assay. Type of series: organism-based. Further details: dose 100 mg/kg, route subcutaneous. Conditions: in vivo.

Series [9] has as its system Rattus norvegicus. The series can be described thus: Decrease in severity of cortical damage in Streptococcus pneumoniae serotype 3 clinical isolate infected in Wistar rat at 100 mg/kg, sc administered 18 hrs post infection measured after 2 to 6 hrs. Type of series: functional. The note with it: route subcutaneous.
The subject of series [10] is Rattus norvegicus. The series can be described thus: Toxicity in Streptococcus pneumoniae serotype 3 clinical isolate infected in Wistar rat assessed as decrease in CSF IL1-beta concentration at 100 mg/kg, sc administered 18 hrs post infection measured after 2 to 6 hrs by microsphere-based multiplex assay. In kind it is organism-based. On the set-up: dose 100 mg/kg, route subcutaneous. The note with it: in vivo.

Series [11] deals with Rattus norvegicus. The series can be described thus: Toxicity in Streptococcus pneumoniae serotype 3 clinical isolate infected in Wistar rat assessed as increase in CSF MIP-1alpha concentration at 100 mg/kg, sc administered 18 hrs post infection measured after 2 to 6 hrs by microsphere-based multiplex assay. Type of series: organism-based. Further details: dose 100 mg/kg, route subcutaneous. Conditions: in vivo.

In series [12] the test system is Rattus norvegicus. The series can be described thus: Toxicity in Streptococcus pneumoniae serotype 3 clinical isolate infected in Wistar rat assessed as decrease in CSF MIP-1alpha concentration at 50 mg/kg, sc administered 18 hrs post infection measured after 2 to 6 hrs by microsphere-based multiplex assay. In kind it is organism-based. Further details: dose 50 mg/kg, route subcutaneous. The note with it: in vivo.

The subject of series [13] is Rattus norvegicus. The series can be described thus: Toxicity in Streptococcus pneumoniae serotype 3 clinical isolate infected in Wistar rat assessed as decrease in CSF IL1-beta concentration at 50 mg/kg, sc administered 18 hrs post infection measured after 2 to 6 hrs by microsphere-based multiplex assay. In kind it is organism-based. On the set-up: dose 50 mg/kg, route subcutaneous. The note with it: in vivo.

The test system of series [14] is Rattus norvegicus. As to the kind of experiment: Toxicity in Streptococcus pneumoniae serotype 3 clinical isolate infected in Wistar rat assessed as decrease in CSF IL-10 concentration at 50 mg/kg, sc administered 18 hrs post infection measured after 2 to 6 hrs by microsphere-based multiplex assay. The note with it: in vivo. On the set-up: dose 50 mg/kg, route subcutaneous. In kind it is organism-based.

The subject of series [15] is Rattus norvegicus. As to the kind of experiment: Toxicity in Streptococcus pneumoniae serotype 3 clinical isolate infected in Wistar rat assessed as increase in CSF MCP-1 concentration at 100 mg/kg, sc administered 18 hrs post infection measured after 2 to 6 hrs by microsphere-based multiplex assay. Type of series: organism-based. Further details: dose 100 mg/kg, route subcutaneous. The note with it: in vivo.

In series [16] the test system is Rattus norvegicus. As to the kind of experiment: Toxicity in against Streptococcus pneumoniae serotype 3 clinical isolate infected in Wistar rat assessed as decrease in CSF IL-18 concentration at 50 mg/kg, sc administered 18 hrs post infection measured after 2 to 6 hrs by microsphere-based multiplex assay. Type of series: organism-based. On the set-up: dose 50 mg/kg, route subcutaneous. Conditions: in vivo.

The test system of series [17] is Rattus norvegicus. As to the kind of experiment: Toxicity in Streptococcus pneumoniae serotype 3 clinical isolate infected in Wistar rat assessed as increase in CSF IL-18 concentration at 50 mg/kg, sc administered 18 hrs post infection measured after 2 to 6 hrs by microsphere-based multiplex assay. Further details: dose 50 mg/kg, route subcutaneous. Conditions: in vivo. Type of series: organism-based.

For the compound `CCCCCCCCCC(=O)N[C@@H](Cc1c[nH]c2ccccc12)C(=O)N[C@H](CC(N)=O)C(=O)N[C@@H](CC(=O)O)C(=O)N[C@@H]1C(=O)NCC(=O)N[C@@H](CCCN)C(=O)N[C@@H](CC(=O)O)C(=O)N[C@H](C)C(=O)N[C@@H](CC(=O)O)C(=O)NCC(=O)N[C@H](CO)C(=O)N[C@@H]([C@H](C)CC(=O)O)C(=O)N[C@@H](CC(=O)c2ccccc2N)C(=O)O[C@@H]1C`, the log10CFU/ml in series [1] was less than 1000 CFU/ml. The Activity entry in [2] was “Non-toxic”; in [3], “Toxic”; in [4] it was “Non-toxic”; in series [6], “Non-toxic”. The compound also registered an inhibition in vivo at 50 mg/kg in [5] of 0.13%.

With `CO/N=C(\C(=O)N[C@@H]1C(=O)N2C(C(=O)O)=C(CSc3nc(=O)c(=O)[nH]n3C)CS[C@H]12)c1csc(N)n1` [CEFTRIAXONE], the Activity entry in [7] is on record as “Non-toxic”; in series [8], “Toxic”; in [10], “Toxic”; in series [11], “Toxic”; in series [12], “Non-toxic”; in series [13], “Non-toxic”. Besides, the Activity result is on record as “Non-toxic” in [14], “Toxic” in series [15], “Non-toxic” in series [16] and “Toxic” in [17]. For the same compound, the inhibition in vivo at 100 mg/kg in series [9] was 4.7%.

For orientation: inhibition in vivo means the drop in the measured response relative to a control, in per cent. A lower inhibition in vivo goes with a response near the control.
